Measured values from patent US9695155B2, “Herbicidal substituted pyrimidinyloxy benzene compounds” (E. I. DU PONT DE NEMOURS AND COMPANY, priority 2013, dated 2017).

Assays:
[1] = test system: barnyardgrass; experiment: Test A preemergence; assay type: in vivo, Echinochloa crus-galli; settings: for Barnyardgrass plant response rating: 500 g ai/ha
How it was run: (§1)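 Scoring: eye-based comparison with untreated controls, 0 for no effect through 100 for complete control, at about day 10. Treatments: directed soil spray preemergence; foliar spray postemergence on 2–10 cm plants at the one- to two-leaf stage. Medium: loam soil with sand.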

[2] = test system: large (Lg) crabgrass; experiment: Test A preemergence; assay type: in vivo, Digitaria sanguinalis; settings: for Crabgrass, Large plant response rating: 500 g ai/ha
How it was run: as §1

[3] = test system: giant foxtail; experiment: Test A preemergence; assay type: in vivo, Setaria faberii; settings: for Foxtail, Giant plant response rating: 500 g ai/ha
How it was run: as §1

[4] = test system: morningglory; experiment: Test A preemergence; assay type: in vivo, Ipomoea spp.; settings: for Morningglory plant response rating: 500 g ai/ha
How it was run: as §1

[5] = test system: pigweed; experiment: Test A preemergence; assay type: in vivo, Amaranthus retroflexus; settings: for Pigweed plant response rating: 500 g ai/ha
How it was run: as §1

[6] = test system: velvetleaf; experiment: Test A preemergence; assay type: in vivo, Abutilon theophrasti; settings: for Velvetleaf plant response rating: 500 g ai/ha
How it was run: as §1

[7] = test system: wheat; experiment: Test A preemergence; assay type: in vivo, Triticum aestivum; settings: for Wheat plant response rating: 500 g ai/ha
How it was run: as §1

[8] = test system: corn; experiment: Test A preemergence; assay type: in vivo, Zea mays; settings: for Corn plant response rating: 500 g ai/ha
How it was run: as §1

[9] = test system: barnyardgrass; experiment: Test A postemergence; assay type: in vivo, Echinochloa crus-galli
How it was run: as §1

[10] = test system: large (Lg) crabgrass; experiment: Test A postemergence; assay type: in vivo, Digitaria sanguinalis
How it was run: as §1

[11] = test system: giant foxtail; experiment: Test A postemergence; assay type: in vivo, Setaria faberii; settings: 0 to 100 scale where 0 is no effect and 100 is complete control
How it was run: as §1

[12] = test system: morningglory; experiment: Test A postemergence; assay type: in vivo, Ipomoea spp.; settings: 0 to 100 scale where 0 is no effect and 100 is complete control
How it was run: as §1

[13] = test system: pigweed; experiment: Test A postemergence; assay type: in vivo, Amaranthus retroflexus; settings: 0 to 100 scale where 0 is no effect and 100 is complete control
How it was run: as §1

[14] = test system: velvetleaf; experiment: Test A postemergence; assay type: in vivo, Abutilon theophrasti; settings: 0 to 100 scale where 0 is no effect and 100 is complete control
How it was run: as §1

[15] = test system: wheat; experiment: Test A postemergence; assay type: in vivo, Triticum aestivum; settings: 0 to 100 scale where 0 is no effect and 100 is complete control
How it was run: as §1

[16] = test system: corn; experiment: Test A postemergence; assay type: in vivo, Zea mays
How it was run: as §1

[17] = test system: rice; experiment: Test B flooded paddy test; assay type: in vivo, Oryza sativa; settings: Flood, 250 g ai/ha; 0 to 100 scale where 0 is no effect and 100 is complete control
How it was run: (§2)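 Evaluation is visual, against untreated controls, 13 to 15 days after treatment. Before treatment, plants reached the 2-leaf stage; pots were then flooded 3 cm deep, compound was added to the water, and that level was maintained. Ratings run 0 to 100, with 100 meaning complete control.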

[18] = test system: sedge, umbrella; experiment: Test B flooded paddy test; assay type: in vivo, Cyperus difformis; settings: Flood, 250 g ai/ha; 0 to 100 scale where 0 is no effect and 100 is complete control
How it was run: as §2

[19] = test system: Heteranthera limosa; experiment: Test B flooded paddy test; assay type: in vivo; settings: Flood, 250 g ai/ha; 0 to 100 scale where 0 is no effect and 100 is complete control
How it was run: as §2

[20] = test system: barnyardgrass; experiment: Test B flooded paddy test; assay type: in vivo, Echinochloa crus-galli; settings: Flood, 250 g ai/ha; 0 to 100 scale where 0 is no effect and 100 is complete control
How it was run: as §2

[21] = test system: rice; experiment: Test C flooded paddy test; assay type: in vivo, Oryza sativa; settings: Flood, scale 0 to 100 (0 no effect, 100 complete control), 13 to 15 days
How it was run: (§3)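 Ratings were visual and made relative to untreated controls after 13 to 15 greenhouse days.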

[22] = test system: sedge, umbrella; experiment: Test C flooded paddy test; assay type: in vivo, Cyperus difformis; settings: Flood, scale 0 to 100 (0 no effect, 100 complete control), 13 to 15 days
How it was run: as §3

[23] = test system: ducksalad; experiment: Test C flooded paddy test; assay type: in vivo, Heteranthera limosa; settings: Flood, scale 0 to 100 (0 no effect, 100 complete control), 13 to 15 days
How it was run: as §3

[24] = test system: barnyardgrass; experiment: Test C flooded paddy test; assay type: in vivo, Echinochloa crus-galli; settings: Flood, scale 0 to 100 (0 no effect, 100 complete control), 13 to 15 days
From the text: At time of treatment, test pots were flooded to 3 cm above the soil surface, treated by application of test compounds directly to the paddy water, and then maintained at that water depth for the duration of the test. Treated plants and controls were maintained in a greenhouse for 13 to 15 days, after which time all species were compared to controls and visually evaluated. […] A dash (-) response means no test result.

[25] = 125 g ai/ha, 0 to 100 scale where 0 is no effect and 100 is complete control
[26] = 0 to 100 scale, 0 no effect, 100 complete control, approx. 10 days
[27] = 500 g ai/ha, 0 to 100 scale, 0 no effect, 100 complete control
[28] = 0 to 100 scale where 0 is no effect and 100 is complete control
[29] = 500 g ai/ha, 0 to 100 scale where 0 is no effect and 100 is complete control

Structure (SMILES): FC(F)c1cnn(-c2ccccc2Oc2ncc(Br)cn2)c1 [Compound 81]
- Plant response rating, Barnyardgrass [1, 25]: 0
- Barnyardgrass plant response rating [1, 26]: 70
- Plant response rating, Crabgrass, Large [2, 25]: 90
- Crabgrass, Large plant response rating [2, 26]: 100
- Plant response rating, Foxtail, Giant [3, 25]: 80
- Foxtail, Giant plant response rating [3, 26]: 100
- Plant response rating, Morningglory [4, 25]: 0
- Morningglory plant response rating [4, 26]: 60
- Plant response rating, Pigweed [5, 25]: 0
- Pigweed plant response rating [5, 26]: 0
- Plant response rating, Velvetleaf [6, 25]: 50
- Velvetleaf plant response rating [6, 26]: 100
- Plant response rating, Wheat [7, 25]: 10
- Wheat plant response rating [7, 26]: 10
- Plant response rating, Corn [8, 25]: 0
- Corn plant response rating [8, 26]: 10
- Plant response rating, Barnyardgrass [9, 25]: 50
- Plant response rating, Barnyardgrass [9, 27]: 100
- Plant response rating, Crabgrass, Large [10, 25]: 40
- Plant response rating, Crabgrass, Large [10, 27]: 90
- Plant response rating, Foxtail, Giant ([11]; 125 g ai/ha): 50
- Plant response rating, Foxtail, Giant ([11]; 500 g ai/ha): 90
- Plant response rating, Morningglory ([12]; 125 g ai/ha): 50
- Plant response rating, Morningglory ([12]; 500 g ai/ha): 100
- Plant response rating, Pigweed ([13]; 125 g ai/ha): 100
- Plant response rating, Pigweed ([13]; 500 g ai/ha): 100
- Plant response rating, Velvetleaf ([14]; 125 g ai/ha): 100
- Plant response rating, Velvetleaf ([14]; 500 g ai/ha): 100
- Plant response rating, Wheat ([15]; 125 g ai/ha): 10
- Plant response rating, Wheat ([15]; 500 g ai/ha): 60
- Plant response rating, Corn [16, 25]: 50
- Plant response rating, Corn [16, 27]: 30
- Plant response rating, Rice [17]: 0
- Plant response rating, Sedge, Umbrella [18]: 80
- Plant response rating, Ducksalad [19]: 90
- Plant response rating, Barnyardgrass [20]: 0
- Plant response rating, Rice ([21]; 31 g ai/ha): 0
- Plant response rating, Rice ([21]; 62 g ai/ha): 0
- Plant response rating, Rice ([21]; 125 g ai/ha): 0
- Plant response rating, Rice ([21]; 250 g ai/ha): 0
- Plant response rating, Sedge, Umbrella ([22]; 31 g ai/ha): 0
- Plant response rating, Sedge, Umbrella ([22]; 62 g ai/ha): 50
- Plant response rating, Sedge, Umbrella ([22]; 125 g ai/ha): 70
- Plant response rating, Sedge, Umbrella ([22]; 250 g ai/ha): 90
- Plant response rating, Ducksalad ([23]; 31 g ai/ha): 30
- Plant response rating, Ducksalad ([23]; 62 g ai/ha): 40
- Plant response rating, Ducksalad ([23]; 125 g ai/ha): 60
- Plant response rating, Ducksalad ([23]; 250 g ai/ha): 90
- Plant response rating, Barnyardgrass ([24]; 31 g ai/ha): 0
- Plant response rating, Barnyardgrass ([24]; 62 g ai/ha): 0
- Plant response rating, Barnyardgrass ([24]; 125 g ai/ha): 0
- Plant response rating, Barnyardgrass ([24]; 250 g ai/ha): 0

Structure (SMILES): FC(F)c1cccc(Oc2ncc(Br)cn2)c1-n1cc(I)cn1 [Compound 185]
- Barnyardgrass plant response rating (0 to 100 scale, 0 is no effect, 100 is complete control) ([1]; 125 g ai/ha): 40
- Barnyardgrass plant response rating [1, 28]: 80
- Crabgrass, Large plant response rating (0 to 100 scale) ([2]; 125 g ai/ha): 90
- Crabgrass, Large plant response rating [2, 28]: 100
- Foxtail, Giant plant response rating (0 to 100 scale) ([3]; 125 g ai/ha): 90
- Foxtail, Giant plant response rating [3, 28]: 100
- Morningglory plant response rating (0 to 100 scale) ([4]; 125 g ai/ha): 10
- Morningglory plant response rating [4, 28]: 30
- Pigweed plant response rating (0 to 100 scale) ([5]; 125 g ai/ha): 100
- Pigweed plant response rating [5, 28]: 100
- Velvetleaf plant response rating (0 to 100 scale) ([6]; 125 g ai/ha): 40
- Velvetleaf plant response rating [6, 28]: 80
- Wheat plant response rating (0 to 100 scale) ([7]; 125 g ai/ha): 0
- Wheat plant response rating [7, 28]: 10
- Corn plant response rating (0 to 100 scale) ([8]; 125 g ai/ha): 0
- Corn plant response rating [8, 28]: 10
- Barnyardgrass plant response rating [9, 25]: 50
- Plant response rating, Barnyardgrass [9, 29]: 80
- Crabgrass, Large plant response rating [10, 25]: 60
- Plant response rating, Crabgrass, Large [10, 29]: 90
- Foxtail, Giant plant response rating ([11]; 125 g ai/ha): 50
- Plant response rating, Foxtail, Giant ([11]; 500 g ai/ha): 80
- Morningglory plant response rating ([12]; 125 g ai/ha): 70
- Plant response rating, Morningglory ([12]; 500 g ai/ha): 90
- Pigweed plant response rating ([13]; 125 g ai/ha): 100
- Plant response rating, Pigweed ([13]; 500 g ai/ha): 100
- Velvetleaf plant response rating ([14]; 125 g ai/ha): 90
- Plant response rating, Velvetleaf ([14]; 500 g ai/ha): 100
- Wheat plant response rating ([15]; 125 g ai/ha): 0
- Plant response rating, Wheat ([15]; 500 g ai/ha): 40
- Corn plant response rating [16, 25]: 10
- Plant response rating, Corn [16, 29]: 20
- Plant response rating, Rice [17]: 0
- Plant response rating, Sedge, Umbrella [18]: 90
- Plant response rating, Ducksalad [19]: 95
- Plant response rating, Barnyardgrass [20]: 0
- Plant response rating, Rice ([21]; 31 g ai/ha): 0
- Plant response rating, Rice ([21]; 62 g ai/ha): 0
- Plant response rating, Rice ([21]; 125 g ai/ha): 0
- Plant response rating, Rice ([21]; 250 g ai/ha): 15
- Plant response rating, Sedge, Umbrella ([22]; 31 g ai/ha): 0
- Plant response rating, Sedge, Umbrella ([22]; 62 g ai/ha): 50
- Plant response rating, Sedge, Umbrella ([22]; 125 g ai/ha): 50
- Plant response rating, Sedge, Umbrella ([22]; 250 g ai/ha): 85
- Plant response rating, Ducksalad ([23]; 31 g ai/ha): 0
- Plant response rating, Ducksalad ([23]; 62 g ai/ha): 0
- Plant response rating, Ducksalad ([23]; 125 g ai/ha): 0
- Plant response rating, Ducksalad ([23]; 250 g ai/ha): 40
- Plant response rating, Barnyardgrass ([24]; 31 g ai/ha): 0
- Plant response rating, Barnyardgrass ([24]; 62 g ai/ha): 0
- Plant response rating, Barnyardgrass ([24]; 125 g ai/ha): 0
- Plant response rating, Barnyardgrass ([24]; 250 g ai/ha): 0
